Laboratory results from patent US10131652B2, “Pyrimidinyloxy benzene derivatives as herbicides” (E. I. DU PONT DE NEMOURS AND COMPANY, priority 2014, dated 2018).
Like-named read-outs stand apart in the source and are kept apart here.

Legend:
Assay in all cases: Test E pre-/postemergence plant response
Assay type in all cases: in vivo
[1] = system: chickweed (common chickweed, Stellaria media); conditions: scale 0 to 100, read-out: Plant response rating, Chickweed; for pest or weed control at 16 g/ha: 16 g ai/ha; for pest or weed control at 31 g/ha: 31 g ai/ha; for pest or weed control at 62 g/ha: 62 g ai/ha; for pest or weed control at 125 g/ha: 125 g ai/ha
Method in brief: (§1)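 Visual scores on a 0–100 scale (100 = complete control) were assigned against untreated controls 7–21 days after treatment in a controlled environment. Compounds, formulated with solvent plus surfactant, were applied to pre-emergence silt-loam sowings or to 1- to 4-leaf plants (2–18 cm) in potting medium.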

[2] = system: spring barley (Hordeum vulgare); conditions: for plant injury at 16 g/ha: 16 g ai/ha; for plant injury at 31 g/ha: 31 g ai/ha; for plant injury at 62 g/ha: 62 g ai/ha; for plant injury at 125 g/ha: 125 g ai/ha
Method in brief: as §1

[3] = system: wild mustard (Sinapis arvensis); conditions: Brassica, scale 0 to 100, read-out: Plant response rating, Mustard, Wild; for pest or weed control at 16 g/ha: 16 g ai/ha; for pest or weed control at 31 g/ha: 31 g ai/ha; for pest or weed control at 62 g/ha: 62 g ai/ha; for pest or weed control at 125 g/ha: 125 g ai/ha
Method in brief: as §1

[4] = system: field poppy (Papaver rhoeas); conditions: scale 0 to 100, read-out: Plant response rating, Field Poppy; for pest or weed control at 16 g/ha: 16 g ai/ha; for pest or weed control at 31 g/ha: 31 g ai/ha; for pest or weed control at 62 g/ha: 62 g ai/ha; for pest or weed control at 125 g/ha: 125 g ai/ha
Method in brief: as §1

[5] = system: wild buckwheat (Polygonum convolvulus); conditions: Fallopia convolvulus, scale 0 to 100, read-out: Plant response rating, Buckwheat, Wild; for pest or weed control at 16 g/ha: 16 g ai/ha; for pest or weed control at 31 g/ha: 31 g ai/ha; for pest or weed control at 62 g/ha: 62 g ai/ha; for pest or weed control at 125 g/ha: 125 g ai/ha
Method in brief: as §1

[6] = system: chamomile (scentless chamomile, Matricaria inodora); conditions: Tripleurospermum inodorum, scale 0 to 100, read-out: Plant response rating, Chamomile; for pest or weed control at 16 g/ha: 16 g ai/ha; for pest or weed control at 31 g/ha: 31 g ai/ha; for pest or weed control at 62 g/ha: 62 g ai/ha; for pest or weed control at 125 g/ha: 125 g ai/ha
Method in brief: as §1

[7] = system: spring wheat (Triticum aestivum); conditions: scale 0 to 100, read-out: Plant response rating, Wheat, Spring; for plant injury at 16 g/ha: 16 g ai/ha; for plant injury at 62 g/ha: 62 g ai/ha; for plant injury at 125 g/ha: 125 g ai/ha
Method in brief: as §1

[8] = system: oilseed rape (Brassica napus); conditions: scale 0 to 100, read-out: Plant response rating, Oilseed Rape; for plant injury at 16 g/ha: 16 g ai/ha; for plant injury at 31 g/ha: 31 g ai/ha; for plant injury at 62 g/ha: 62 g ai/ha; for plant injury at 125 g/ha: 125 g ai/ha
Method in brief: as §1

[9] = system: speedwell (bird's-eye speedwell, Veronica persica); conditions: scale 0 to 100, read-out: Plant response rating, Speedwell; for pest or weed control at 16 g/ha: 16 g ai/ha; for pest or weed control at 62 g/ha: 62 g ai/ha; for pest or weed control at 125 g/ha: 125 g ai/ha
Method in brief: as §1

[10] = system: galium (catchweed bedstraw, Galium aparine); conditions: scale 0 to 100, read-out: Plant response rating, Galium; for pest or weed control at 16 g/ha: 16 g ai/ha; for pest or weed control at 31 g/ha: 31 g ai/ha; for pest or weed control at 62 g/ha: 62 g ai/ha; for pest or weed control at 125 g/ha: 125 g ai/ha
Method in brief: as §1

[11] = system: field violet (Viola arvensis); conditions: scale 0 to 100, read-out: Plant response rating, Field Violet; for pest or weed control at 16 g/ha: 16 g ai/ha; for pest or weed control at 31 g/ha: 31 g ai/ha; for pest or weed control at 62 g/ha: 62 g ai/ha; for pest or weed control at 125 g/ha: 125 g ai/ha
Method in brief: as §1

[12] = post-emergence, Postemergence, scale 0 to 100, read-out: Plant response rating, Barley, Spring
[13] = pre-emergence, Preemergence, scale 0 to 100, read-out: Plant response rating, Barley, Spring
[14] = post-emergence, 31 g ai/ha, Postemergence

In the case of `Fc1cccc(Oc2ncc(Cl)cn2)c1-c1cc(C(F)F)no1` [Compound 144, 5-chloro-2-[2-[3-(difluoromethyl)-5-isoxazolyl]-3-fluorophenoxy]pyrimidine], the pest or weed control at 16 g/ha ([1]; post-emergence, Postemergence) was 85%, the pest or weed control at 31 g/ha ([1]; post-emergence, Postemergence) was 100% and the pest or weed control at 62 g/ha ([1]; post-emergence, Postemergence) was 100%. It also gave a pest or weed control at 125 g/ha ([1]; post-emergence, Postemergence) of 100%, a pest or weed control at 16 g/ha ([1]; pre-emergence, Preemergence) of 100% and a pest or weed control at 31 g/ha ([1]; pre-emergence, Preemergence) of 100%. It also gave a pest or weed control at 62 g/ha ([1]; pre-emergence, Preemergence) of 100%, a pest or weed control at 125 g/ha ([1]; pre-emergence, Preemergence) of 100% and a plant injury at 16 g/ha [2, 12] of 15%. It also gave a plant injury at 31 g/ha [2, 12] of 25%, a plant injury at 62 g/ha [2, 12] of 35% and a plant injury at 125 g/ha ([2]; post-emergence, Postemergence, scale 0 to 100 (0 no effect, 100 complete control), read-out: Plant response rating, Barley, Spring) of 45%. It also gave a plant injury at 16 g/ha [2, 13] of 10%, a plant injury at 31 g/ha [2, 13] of 25% and a plant injury at 62 g/ha [2, 13] of 45%. For the same molecule, the plant injury at 125 g/ha [2, 13] was 65%, the pest or weed control at 16 g/ha ([3]; post-emergence, Postemergence) was 100% and the pest or weed control at 31 g/ha ([3]; post-emergence, Postemergence) was 100%. The pest or weed control at 62 g/ha ([3]; post-emergence, Postemergence) was 100%, the pest or weed control at 125 g/ha ([3]; post-emergence, Postemergence) was 100% and the pest or weed control at 16 g/ha ([3]; pre-emergence, Preemergence) was 90%. It also gave a pest or weed control at 31 g/ha ([3]; pre-emergence, Preemergence) of 100%, a pest or weed control at 62 g/ha ([3]; pre-emergence, Preemergence) of 100% and a pest or weed control at 125 g/ha ([3]; pre-emergence, Preemergence) of 100%. It also gave a pest or weed control at 16 g/ha ([4]; post-emergence, Postemergence) of 100%, a pest or weed control at 31 g/ha ([4]; post-emergence, Postemergence) of 100% and a pest or weed control at 62 g/ha ([4]; post-emergence, Postemergence) of 100%. It also gave a pest or weed control at 125 g/ha ([4]; post-emergence, Postemergence) of 100%, a pest or weed control at 16 g/ha ([4]; pre-emergence, Preemergence) of 100% and a pest or weed control at 31 g/ha ([4]; pre-emergence, Preemergence) of 100%. The pest or weed control at 62 g/ha ([4]; pre-emergence, Preemergence) was 100%, the pest or weed control at 125 g/ha ([4]; pre-emergence, Preemergence) was 100% and the pest or weed control at 16 g/ha ([5]; post-emergence, Postemergence) was 100%. The pest or weed control at 31 g/ha ([5]; post-emergence, Postemergence) was 95%, the pest or weed control at 62 g/ha ([5]; post-emergence, Postemergence) was 100% and the pest or weed control at 125 g/ha ([5]; post-emergence, Postemergence) was 100%. For the same molecule, the pest or weed control at 16 g/ha ([5]; pre-emergence, Preemergence) was 85%, the pest or weed control at 31 g/ha ([5]; pre-emergence, Preemergence) was 100% and the pest or weed control at 62 g/ha ([5]; pre-emergence, Preemergence) was 100%. For the same molecule, the pest or weed control at 125 g/ha ([5]; pre-emergence, Preemergence) was 100%, the pest or weed control at 16 g/ha ([6]; post-emergence, Postemergence) was 80% and the pest or weed control at 31 g/ha ([6]; post-emergence, Postemergence) was 75%. The pest or weed control at 62 g/ha ([6]; post-emergence, Postemergence) was 80%, the pest or weed control at 125 g/ha ([6]; post-emergence, Postemergence) was 95% and the pest or weed control at 16 g/ha ([6]; pre-emergence, Preemergence) was 15%. It also gave a pest or weed control at 31 g/ha ([6]; pre-emergence, Preemergence) of 20%, a pest or weed control at 62 g/ha ([6]; pre-emergence, Preemergence) of 100% and a pest or weed control at 125 g/ha ([6]; pre-emergence, Preemergence) of 100%. It also gave a plant injury at 16 g/ha ([7]; post-emergence, Postemergence) of 25%, a plant injury at 31 g/ha [7, 14] of 35% and a plant injury at 62 g/ha ([7]; post-emergence, Postemergence) of 45%. It also gave a plant injury at 125 g/ha ([7]; post-emergence, Postemergence) of 75%, a plant injury at 16 g/ha ([7]; pre-emergence, Preemergence) of 5% and a plant injury at 62 g/ha ([7]; pre-emergence, Preemergence) of 40%. The plant injury at 125 g/ha ([7]; pre-emergence, Preemergence) was 55%, the plant injury at 16 g/ha ([8]; post-emergence, Postemergence) was 100% and the plant injury at 31 g/ha ([8]; post-emergence, Postemergence) was 100%. It also gave a plant injury at 62 g/ha ([8]; post-emergence, Postemergence) of 100%, a plant injury at 125 g/ha ([8]; post-emergence, Postemergence) of 100% and a plant injury at 16 g/ha ([8]; pre-emergence, Preemergence) of 35%. The plant injury at 31 g/ha ([8]; pre-emergence, Preemergence) was 80%, the plant injury at 62 g/ha ([8]; pre-emergence, Preemergence) was 100% and the plant injury at 125 g/ha ([8]; pre-emergence, Preemergence) was 100%. For the same molecule, the pest or weed control at 16 g/ha ([9]; post-emergence, Postemergence) was 100%, the pest or weed control at 31 g/ha [9, 14] was 100% and the pest or weed control at 62 g/ha ([9]; post-emergence, Postemergence) was 100%. It also gave a pest or weed control at 125 g/ha ([9]; post-emergence, Postemergence) of 100%, a pest or weed control at 16 g/ha ([9]; pre-emergence, Preemergence) of 100% and a pest or weed control at 62 g/ha ([9]; pre-emergence, Preemergence) of 100%. It also gave a pest or weed control at 125 g/ha ([9]; pre-emergence, Preemergence) of 100%, a pest or weed control at 16 g/ha ([10]; post-emergence, Postemergence) of 80% and a pest or weed control at 31 g/ha ([10]; post-emergence, Postemergence) of 95%. For the same molecule, the pest or weed control at 62 g/ha ([10]; post-emergence, Postemergence) was 100%, the pest or weed control at 125 g/ha ([10]; post-emergence, Postemergence) was 100% and the pest or weed control at 16 g/ha ([10]; pre-emergence, Preemergence) was 20%. For the same molecule, the pest or weed control at 31 g/ha ([10]; pre-emergence, Preemergence) was 70%, the pest or weed control at 62 g/ha ([10]; pre-emergence, Preemergence) was 100% and the pest or weed control at 125 g/ha ([10]; pre-emergence, Preemergence) was 100%. For the same molecule, the pest or weed control at 16 g/ha ([11]; post-emergence, Postemergence) was 95%, the pest or weed control at 31 g/ha ([11]; post-emergence, Postemergence) was 90% and the pest or weed control at 62 g/ha ([11]; post-emergence, Postemergence) was 100%. For the same molecule, the pest or weed control at 125 g/ha ([11]; post-emergence, Postemergence) was 100%, the pest or weed control at 16 g/ha ([11]; pre-emergence, Preemergence) was 95% and the pest or weed control at 31 g/ha ([11]; pre-emergence, Preemergence) was 100%. The pest or weed control at 62 g/ha ([11]; pre-emergence, Preemergence) was 100% and the pest or weed control at 125 g/ha ([11]; pre-emergence, Preemergence) was 100%.
